The values below come from patent US8921424B2, “Histone deacetylase inhibitors, process for preparation and uses thereof” (Zhejiang Hisun Pharmaceutical Co. Ltd., priority 2007, dated 2014).

One test deals with MDA-MB-435. Description: Xenograft model, MDA-MB-435. Format: in vivo, mouse. Conditions: i.p., 15 days. From the text: In Vivo Anti-Neoplastic (or Anti-Tumour) Effect of HDAC Inhibiting Agents
The efficacy of the selected compounds of the invention can then be determined using in vivo animal (mouse) xenograft studies. The animal xenograft model is one of the most commonly used in vivo cancer models for studying the pharmaceutically effective dosage, administration route, frequency and interval.
Athymic nude mice (Female, 5-6 week old, BALB/c, nu/nu, approximately 18-20 g body weight) are obtained from Vital River. The animals are kept on a 12 h light/dark cycle (0700-1900); food and water are provided ad libitum. All in vivo experiments are carried out in a specific pathogen-free facility (22° C.). The human cancer […] transplant model in athymic nude mice is constructed using xenograft cell lines colon cancer cell line colo205, breast cancer cell line MDA-MB435, and lung cancer cell line A549, all obtained from ATCC. Cultured cells are removed from culture plate wall by digestion, collected and suspended in cell culture medium containing no FBS, at a concentration of 5×10^6/0.2 ml, and brought to animal facility on ice. is 0.2 ml cell suspension is given to mice via rear left auxilliary subcutaneous scapular injection, using Size 6 needle. Animals are measured every 2-3 days on the size of tumor formation. After two weeks, those tumors that have been well grown without leak are removed from animals under sterile condition, split into several small fractions (2-3 mm in diameter), and injected s.c. into the rear left auxilliary subcutaneous scapular of animals. […] While the animas being treated, body weight of the animal and size of the tumor are measured every 3 days, with mortality also recorded. […] Tumors are removed, weighed, and measured. […] Tumor-inhibition rate, mortality, as well as relative tumor proliferationrate T/C (%) are calculated. […]
Significant differences in tumor growth rate were determined by analysis of variance (Table 5).

The test system of a further test is BXPC-3. Description: Cell-based proliferation assay (SRB), BXPC-3. Conditions: Homo sapiens.
In a further test the test system is MDAMB435. Description: Cell-based proliferation assay (SRB), MDAMB435. Conditions: Homo sapiens. The method, then: (§1) Cell-Based Proliferation Assay for Determination of GI50 Values
(§2) A rapid multiwell plate assay using Sulforhodamine B (SRB) protein stain was adopted to evaluate the growth inhibitory effects of the compounds of the present invention. The screening panel of cancer cell lines includes Colo205 and HCT116 colon cancer cells, MDA-MB231 and MDA-MB435 chest cancer cells, A549 lung cancer cells, and Chinese hamster ovary cell line CHO, which were obtained from ATCC.
(§3) The cell line Colo205 is grown in RPMI 1640 medium containing 2 mM L-glutamine, 5% fetal bovine serum, and 1.0 mM sodium pyruvic acid. Cell lines A549 and MDA-MB231 are grown in RPMI 1640 medium containing 2 mM L-glutamine and 5% fetal bovine serum. The cell line MDA-MB435 is grown in DMEM medium containing 2 mM L-glutamine and 5% fetal bovine serum. The cell lines HCT 116 is grown in IMEM medium containing 2 mM L-glutamine and 5% fetal bovine serum. The CHO cell line, used as a normal control on toxicity, is grown in a special medium for cell line. For a typical screening experiment, A549 and Colo205 cells are inoculated into 96-well microtiter plates, with 100 μL per well, and 2000 and 5000 cells per well respectively for either cell line. MDA-MB435, HCT116, MDA-MB231 and CHO cells are also inoculated into 96-well microtiter plates, with 6000 cells per well. After cell inoculation, the microtiter plates are incubated at 37° C., 5% CO2, and 100% relative humidity for 24 hr in order to make cells adhere to well wall.
(§4) After 24 h incubation or time zero for drug addition, with each cell line 50 μl of cold 50% (w/v) TCA is added to wells used for control to fix cells in situ. Also at time zero, cells in other wells are treated with 100 μl of compound of different concentrations for 24 hr, 48 hr, and 72 hr respectively, with varying final compound concentration (0.1 μM, 1 μM, 5 μM 10 μM). For each treatment duration at each compound concentration, there are triplicate wells, as well as an array of control wells including a blank control well (cell culture medium only, no cells), a no-compound control well (adding same volume of cell culture medium but no compound), a positive control well (treated with Suberoylanilide hydroxamic acid (SAHA)), and normal cell well control (CHO cells). Following the addition of compounds, cell plates are incubated for 24 h, 48 h or 72 h per treatment group at 37° C., 5% CO2, and 100% relative humidity. The Treatment is then terminated by addition of cold TCA and incubation of 1 hr at 4° C. The supernatant is discarded, and all wells are washed five times with de-ioned water and air dried. Then each well is added with 100 μl sulforhodamine B (SRB) solution (0.4% (w/v) made in 1% acetic acid) and cell plates are incubated for 20-30 minutes at room temperature. After staining, unbound dye is removed by washing five times with 1% acetic acid and the plates are air dried. Bound stain is subsequently solubilized with 10 mM (200 μL) Tris base with the help of 5 min platform vibration or pipetting up and down, and the absorbance is read on an automated plate reader (M5 detection system, MD Group Ltd.) at a wavelength of 565 nm (calibrated zero reading of blank control at wavelength of 690 nm). The analytical software, XL-fit has been used to generate GI50 from a series of data thus obtained.

The next test has as its system HL-60. Description: Xenograft model, HL-60. Format: in vivo, mouse. The conditions noted are these: i.p.
Another test concerns Colo205. The test can be described thus: Cell-based proliferation assay (SRB), Colo205. Conditions: Homo sapiens. The method, then: as §1, §2, §3, §4
The next test concerns MDAMB231. The test can be described thus: Cell-based proliferation assay (SRB), MDAMB231. The conditions noted are these: Homo sapiens, MDA-MB-231; Table 4. The protocol:
as §1, §2, §3, §4

In a further test the test system is HCT116. The test can be described thus: Cell-based proliferation assay (SRB), HCT116. Conditions: Homo sapiens. The method, then: as §1, §2, §3, §4
In the next test the test system is SKOV-3. Description: Cell-based proliferation assay (SRB), SKOV-3. Conditions: Homo sapiens. The protocol: as §1, §2, §3, §4

For the molecule `CCCCCNc1cc(/C=C/C(=O)NO)ccc1SCCN(CC)CC` [Example 2, 3-(4-(2-(diethylamino)ethylthio)-3-(pentylamino)phenyl)-N-hydroxy-acrylamide], in the test on MDA-MB-435 (200 mg/kg), the “T/C(%) MDA-MB-435” value is listed as >60% (200,15). In addition, the GI50 (as a rule, the concentration that inhibits growth by half) in the test with BXPC-3 (BXPC-3, Table 3) was determined as 6.89 µM; with MDAMB435 (MDA-MB-435, Table 3) it was 3.1 µM; in the test with MDAMB435 (MDA-MB-435, Table 4) it was 3.1 µM; in the test with Colo205 (COLO 205, Table 3), 4.23 µM; with Colo205 (COLO 205, Table 4), 4.23 µM; in the test on MDAMB231 it was 3.5 µM. The GI50 in the test with HCT116 (HCT-116, Table 3) was 3.99 µM; in the test on HCT116 (HCT-116, Table 4) it was 3.99 µM; with SKOV-3 (SK-OV-3, Table 3) it was 5.46 µM; in the test on SKOV-3 (SK-OV-3, Table 4), 5.46 µM. In addition, the “T/C(%) HL-60” value in the test on HL-60 (200 mg/kg, 15 days) is listed as 40% (200,15).
As for `O=C(CCCCCCC(=O)Nc1ccccc1)NO` [SAHA, suberoylanilide hydroxamic acid, reference compound], the “T/C(%) MDA-MB-435” value with MDA-MB-435 (80 mg/kg) is reported as >60% (80,15). The GI50 in the test with BXPC-3 (BXPC-3, Table 3) amounted to 5.68 µM; in the test with MDAMB435 (MDA-MB-435, Table 3) it was 4.1 µM; with Colo205 (COLO 205, Table 3), 3.15 µM; with MDAMB231, 5.1 µM; with HCT116 (HCT-116, Table 3) it was 1.52 µM; in the test on SKOV-3 (SK-OV-3, Table 3) it was 3.56 µM. In addition, the “T/C(%) HL-60” value in the test on HL-60 (80 mg/kg, 10 days) is listed as 45% (80,10).
For `CCCCc1nc2cc(/C=C/C(=O)NO)ccc2n1CCN(CC)CC` [SB939, reference compound], the “T/C(%) MDA-MB-435” value in the test on MDA-MB-435 (30 mg/kg) is recorded as 58% (30,15). Further, the GI50 is 6.78 µM in the test on BXPC-3 (BXPC-3, Table 3); 6.78 µM in the test with BXPC-3 (BXPC-3, Table 4); 2.65 µM in the test with MDAMB435 (MDA-MB-435, Table 3); 2.65 µM in the test with MDAMB435 (MDA-MB-435, Table 4); 2.41 µM in the test on Colo205 (COLO 205, Table 3); 2.41 µM in the test with Colo205 (COLO 205, Table 4). For the same molecule, the GI50 in the test with MDAMB231 was determined as 2.35 µM; with HCT116 (HCT-116, Table 3) it was 1.35 µM; in the test on SKOV-3 (SK-OV-3, Table 3) it was 5.25 µM; in the test on SKOV-3 (SK-OV-3, Table 4), 5.25 µM. The “T/C(%) HL-60” value in the test on HL-60 (30 mg/kg, 10 days) is reported as 51% (30,10).
